Legend:
[1] = system: monkey corneal endothelial cells; assay: Primary culture of monkey corneal endothelial cells, toluidine blue staining, total area of cultured cells (Image J); type: cell-based, Macaca fascicularis; settings: Y-27632 10 μM, day 10
Procedure: From the corneal tissue isolated from Macaca fascicularis euthanized, Descemet's membrane with corneal endothelial cells attached thereto was separated. In the same manner as in Example 2, for the ROCK inhibitor(+) group, the Descemet's membrane was placed in a medium for corneal endothelium added with Y-27632 (10 μM) and incubated under the conditions of 37° C., 5% CO2 for 10 min. For the ROCK inhibitor(−) group, the membrane was placed in a medium for corneal endothelium without addition of Y-27632 and incubated for 10 min under the same conditions. As the medium for corneal endothelium, the same cell culture medium as in Example 1 was used. The Descemet's membrane after the incubation was incubated together with Dispase II (1.2 U/ml, Roche Applied Science) under the conditions of 37° C., 5% CO2 for 45 min, and the corneal endothelial cells were mechanically separated by a pipetting operation. The separated corneal endothelial cells were centrifuged and stirred in the media for corneal endothelium with Y-27632(+) and Y-27632(−) to the same concentration, and the cells were seeded on a 96 well plate at a density of about 2000 cells per well. […] The total area of the cells was measured using Image J (National Institutes of Health) and analyzed (FIG. 6C).

[2] = system: monkey corneal endothelial cells; assay: Optimal concentration of Y-27632 for monkey corneal endothelial cells, viable cell count by CellTiter-Glo; type: cell-based, Macaca fascicularis
Procedure: Monkey corneal endothelial cells (primary culture) collected in the same manner as in Example 2 were placed in media for corneal endothelium each added with Y-27632 at 1, 10, 33 and 100 μM and a medium for corneal endothelium without addition of Y-27632, and stirred to the same concentration, and the cells were seeded on a 96 well plate at a density of about 2000 cells per well. At 24 hr from the start of the culture, viable cells were counted using CellTiter-Glo (registered trade mark, Promega) (FIG. 7).

[3] = system: monkey corneal endothelial cells; assay: Passage culture of monkey corneal endothelial cells with Y-27632, cell count by CellTiter-Glo; type: cell-based, Macaca fascicularis; settings: Y-27632 10 μM, dilution ½, ⅙ or ⅛
Procedure: From the corneal tissue isolated from Macaca fascicularis euthanized, Descemet's membrane with corneal endothelial cells attached thereto was separated. The Descemet's membrane was incubated together with Dispase II (1.2 U/ml, Roche Applied Science) under the conditions of 37° C., 5% CO2 for 45 min, and the corneal endothelial cells were mechanically separated by a pipetting operation. The separated corneal endothelial cells were centrifuged and seeded on a media for corneal endothelium. The corneal endothelial cells that reached confluent were incubated with 0.05% trypsin under the conditions of 37° C., 5% CO2 for 10 min, and passage-cultured. After 4 to 6 passages, the corneal endothelial cells were placed in a 96-well plate to a dilution of ½, ⅙ or ⅛. The passage culture was continued using a medium for corneal endothelium added with Y-27632 (10 μM) for the ROCK inhibitor(+) group and a medium for corneal endothelium without addition of Y-27632 for the ROCK inhibitor(−) group. At 24 hr after the passage, the cells were counted in the same manner as in Example 5 using CellTiter-Glo (registered trade mark, Promega) (FIG. 8).

[4] = system: monkey corneal endothelial cells; assay: Density of cultured monkey corneal endothelial cells over repeated passages; type: cell-based, Macaca fascicularis; settings: Y-27632 10 μM, passage repeated 7 times
Procedure: From the corneal tissue isolated from Macaca fascicularis euthanized, Descemet's membrane with corneal endothelial cells attached thereto was separated. The Descemet's membrane was incubated together with Dispase II (1.2 U/ml, Roche Applied Science) under the conditions of 37° C., 5% CO2 for 45 min, and the corneal endothelial cells were mechanically separated by a pipetting operation. The separated corneal endothelial cells were centrifuged and seeded on a medium for corneal endothelium. The corneal endothelial cells that reached confluent were incubated with 0.05% trypsin under the conditions of 37° C., 5% CO2 for 10 min, and passage-cultured. A medium for corneal endothelium added with Y-27632 (10 μM) was used for the ROCK inhibitor(+) group and a medium for corneal endothelium without addition of Y-27632 was used for the ROCK inhibitor(−) group. At 72 hr from the start of the culture, the culture medium was exchanged and, after 72 hr, both the ROCK inhibitor(+) group and ROCK inhibitor(−) group were cultured in a normal medium for corneal endothelium free of Y-27632. On every passage, photographs of the cells were taken with a phase contrast microscope, cell density was measured, and the influence of Y-27632 on the density of the cultured monkey corneal endothelial cells was studied.

[5] = system: rabbit corneal endothelial cells; assay: Culture of rabbit corneal endothelial cells with Y-27632, cells counted by MTS assay; type: cell-based; settings: primary culture, Y-27632 10 μM
Procedure: From a rabbit corneal tissue isolated immediately after euthanasia, Descemet's membrane with corneal endothelial cells attached thereto was separated. The Descemet's membrane was incubated together with Dispase II (1.2 U/ml, Roche Applied Science) under the conditions of 37° C., 5% CO2 for 45 min, and the corneal endothelial cells were mechanically separated by a pipetting operation. The separated corneal endothelial cells were centrifuged, the cells of a ROCK inhibitor(+) group were stirred in a medium for corneal endothelium added with Y-27632 (10 μM) and the cells of a ROCK inhibitor(−) group were stirred in a medium for corneal endothelium without addition of Y-27632, to the same concentration, and the cells were seeded on a 96 well plate at a density of about 2000 cells per well. As a medium for corneal endothelium, a culture medium (DMEM, Gibco Invitrogen) added with 1% fetal bovine serum and […] bFGF (Gibco Invitrogen) was used. The plate was pre-treated with an FNC coating mix (Athena ES) for 10 min. […] From day 1 to day 3 after the start of the culture, the cells were counted every 24 hr by MTS ([3-(4,5-dimethylthiazol-2-yl)-5-(3-carboxymethoxyphenyl)-2-(4-sulfophenyl)-2H-tetrazolium]) assay using CellTiter 96 (registered trade mark) AQueous One Solution Cell Proliferation (Promega) (FIG. 2).

CC(N)[C@H]1CC[C@H](C(=O)Nc2ccncc2)CC1 (single isomer, unassigned; (+)) [Y-27632, (+)-trans-4-(1-aminoethyl)-1-(4-pyridylcarbamoyl)cyclohexane]
total area of cultured cells as compared to the ROCK inhibitor(−) [1]: about 1.6 fold
most effective concentration for monkey corneal endothelial cells ([2]; of 1, 10, 33 and 100 μM, 24 hr): 10 µM
number of cells that adhered onto the plate at 24 hr, compared to medium without Y-27632 and media with other concentrations ([2]; primary culture, 10 μM Y-27632 (1, 10, 33 and 100 μM tested)): significantly high
number of cells that adhered onto the plate at 24 hr after the passage, compared to medium without Y-27632 [3]: significantly high
cell density throughout the passage culture, compared to ROCK inhibitor(−) group [4]: higher cell density
cell adhesion in 24 hr (day 1) after cell seeding as compared to the ROCK inhibitor(−) group [5]: about 2.8 fold
cell growth at day 3 when the cells reached confluent, difference from ROCK inhibitor(−) group ([5]; day 3): a significant difference was not found

Reference: patent US20230210864A1, “AGENT FOR PROMOTING CORNEAL ENDOTHELIAL CELL ADHESION” (Senju Pharmaceutical Co., Ltd., priority 2007, published 2023)
